Values of other authors in patent US6534508B2, “Methods and compositions for treating infection using optically pure (S)-lomefloxacin” (priority 1991, dated 2003).
In brackets after ≈: the same amount, converted by molar mass.

System: M. tuberculosis
Details: 11 strains resistant to conventional drug therapy; cited from earlier work

In the case of CCn1cc(C(=O)O)c(=O)c2cc(F)c(N3CCNC(C)C3)c(F)c21 (racemic) [LM, 1-ethyl-6,8-difluoro-1,4-dihydro-7-(3-methyl-lpiperazinyl)-4-oxo-3-quinolinecarboxylic acid], the MIC50 is listed as 1.0 mg/L (≈ 2.85 µM) and the MIC90 is listed as 1.1 mg/L (≈ 3.13 µM).
